Reference: ChEMBL document CHEMBL1127143, “New -lactam homologs of penems” (1993)
≈ marks a conversion by molar mass, not a printed value.

Key:
Staphylococcus aureus = experiment: Minimum inhibitory concentration for the antibacterial activity against Staphylococcus aureus; type: functional
actinomadura species = experiment: Compound was tested for percent inhibition of D,D - Carboxypeptidase from Actinomadura sp. R39 at 100 uM concentration

MIC (Staphylococcus aureus): 320 µg/mL (≈ 845 µM)
inhibition (actinomadura species): 15%
SMILES: CCSC1=C(C(=O)O)N2C(=O)C(NC(=O)Cc3ccccc3)CC2S1 (configuration not stated)
